Measurements taken from paper PMC11939996 (Biomolecules, 2025).

How the values were obtained:
[1] = molecular target: RAGE V domain (Homo sapiens) (UniProt Q15109); conditions: cited from earlier work
monomeric Aβ42 = experiment: Bio-layer interferometry, analyte binding to immobilized monomeric Aβ42; design: species or system human; conditions: for ka × 10^−2: association, bivalent analyte model, number is ka multiplied by 10^−2, 25 °C, pH 7.4, 2.5 mM CaCl2, mean ± SD, n = 3–4
Description: (§1) Next, 96-well microplates with analyte solutions were kept at 25 °C and shaken at 1000 rpm. The Aβ samples were pretreated with neat TFA, followed by dissolution in DMSO as described in ref. [61, 66]. […] The rest of the activated amine groups on the sensor were blocked by 1 M ethanolamine solution. […] The sensor surface was regenerated by the passage of 0.5% SDS water solution for 30 s.
(§2) The direct interaction of S100 proteins with monomeric Aβ was studied by biolayer interferometry in the buffer conditions mimicking the physiological conditions (20 mM Tris-HCl, 140 mM NaCl, 4.9 mM KCl, 2.5 mM CaCl2, 1 mM MgCl2, pH 7.4).
(§3) Since the S100 proteins are predominantly dimeric, their BLI sensograms were described within the bivalent analyte model (1), taking into account that the dimer concentration is half of the monomer concentration.

HSA–Aβ40 interaction = experiment: BLI competition: HSA interaction with monomeric Aβ40 in presence of S100A8/S100A9; format: binding, human; conditions: 67 µM HSA with 12 µM S100A8 or 7 µM S100A9; 25 °C, pH 7.4, 2.5 mM CaCl2
Description: (§4) Next, 96-well microplates with analyte solutions were kept at 25 °C and shaken at 1000 rpm. The Aβ samples were pretreated with neat TFA, followed by dissolution in DMSO as described in ref. [61, 66]. The pretreated ligand (5 μg/mL Aβ40/Aβ42 in 10 mM sodium acetate, pH 4.5 buffer) was immobilized onto Octet® AR2G biosensor (Sartorius AG, Göttingen, Germany) by amine coupling using EDAC/sulfo-NHS to achieve the loading level of 3.5 nm. The rest of the activated amine groups on the sensor were blocked by 1 M ethanolamine solution. The noncovalently bound ligand molecules were washed off the sensor with a 0.5% SDS water solution, followed by passage of the assay buffer (20 mM Tris-HCl, 140 mM NaCl, 4.9 mM KCl, 2.5 mM CaCl2, 1 mM MgCl2, pH 7.4), resulting in the loading level of 1.5 nm. […] The sensor surface was regenerated by the passage of 0.5% SDS water solution for 30 s.

HSA–Aβ42 interaction = experiment: BLI competition: HSA interaction with monomeric Aβ42 in presence of S100A8/S100A9; format: binding, human; conditions: 67 µM HSA with 12 µM S100A8 or 7 µM S100A9; 25 °C, pH 7.4, 2.5 mM CaCl2
Description: as §4

Aβ40/Aβ42 = experiment: Chemical cross-linking with glutaraldehyde, SDS-PAGE; format: binding, human; conditions: faint band; 0.02% glutaraldehyde, 37 °C, 1 h, 25–75 μM S100A8, 20 μM Aβ40/Aβ42, pH 7.4
Description: The protein solution was incubated at 25 °C for 30 min prior to the cross-linking.

Toll-like receptor 4 = conditions: in the presence of Ca^2+ and Zn^2+; cited from earlier work
[2] = molecular target: Toll-like receptor 4 (Homo sapiens) (UniProt O00206); conditions: cited from earlier work
Sequence of Toll-like receptor 4 (Homo sapiens) (O00206 24-839): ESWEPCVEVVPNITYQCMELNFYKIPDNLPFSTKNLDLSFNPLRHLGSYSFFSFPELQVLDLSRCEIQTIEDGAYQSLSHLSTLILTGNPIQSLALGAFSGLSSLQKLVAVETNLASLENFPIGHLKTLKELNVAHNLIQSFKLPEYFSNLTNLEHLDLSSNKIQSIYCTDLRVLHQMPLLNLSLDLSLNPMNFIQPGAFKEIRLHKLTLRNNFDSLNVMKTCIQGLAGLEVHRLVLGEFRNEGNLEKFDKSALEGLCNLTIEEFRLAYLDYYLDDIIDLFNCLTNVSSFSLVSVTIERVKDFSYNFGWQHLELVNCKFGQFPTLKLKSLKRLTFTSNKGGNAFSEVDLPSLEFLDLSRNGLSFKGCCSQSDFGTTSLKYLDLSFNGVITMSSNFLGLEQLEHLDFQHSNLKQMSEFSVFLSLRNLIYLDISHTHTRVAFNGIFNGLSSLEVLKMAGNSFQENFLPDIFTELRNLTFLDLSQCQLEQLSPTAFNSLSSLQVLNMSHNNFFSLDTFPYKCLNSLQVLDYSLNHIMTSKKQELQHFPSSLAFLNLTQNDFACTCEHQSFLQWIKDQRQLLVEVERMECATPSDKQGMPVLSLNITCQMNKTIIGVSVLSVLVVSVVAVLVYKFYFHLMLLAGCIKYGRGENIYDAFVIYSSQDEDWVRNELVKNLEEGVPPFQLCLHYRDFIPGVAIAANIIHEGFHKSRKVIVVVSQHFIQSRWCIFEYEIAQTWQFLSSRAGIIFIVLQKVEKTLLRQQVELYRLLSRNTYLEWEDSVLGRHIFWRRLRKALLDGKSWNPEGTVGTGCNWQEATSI

Aβ40 fibrillation = experiment: Transmission electron microscopy of Aβ40 fibrils; design: species or system human; conditions: 20 μM Aβ40 alone or with 4 μM S100A8 or S100A9, after ThT assay (30 °C, pH 7.4)
Description: A 300-mesh copper grid coated with a 0.2% formvar film was placed onto a 10 µL drop of the sample. After allowing the sample (after the ThT fluorescence assay) to adsorb for 10 min, the grid was negatively stained for 2 min using a 1% (w/v) aqueous solution of uranyl acetate. Excess staining solution was removed with filter paper, followed by a 1 min rinse in deionized water. The samples were examined using a JEM-1400Plus (HC) transmission electron microscope (JEOL, Ltd., Tokyo, Japan) operated at 80 keV.

monomeric Aβ40 = experiment: Bio-layer interferometry, analyte binding to immobilized monomeric Aβ40; design: species or system human; conditions: association; bivalent analyte model; number is ka multiplied by 10^−2; 25 °C, pH 7.4, 2.5 mM CaCl2; mean ± SD, n = 3–4
Description: as §1, §2, §3

RAGE V domain = conditions: cited from earlier work
Aβ40 = conditions: cited from earlier work
Excerpt: Another component colocalized with senile plaques and associated with AD are specific members of the S100 protein family (reviewed in ref. [36]). The S100 family contains over two dozen small (9–13 kDa) multifunctional Ca^2+-binding proteins of the EF-hand superfamily, defined by the presence of the EF-hand motif, which coordinates a calcium ion through a loop located between two α-helices. Some S100 proteins affect cognitive processes, neuronal development and maintenance, APP processing, Aβ levels, the formation of amyloid plaques, post-translational modif ...

Sequence of S100A9 (P06702 whole entry): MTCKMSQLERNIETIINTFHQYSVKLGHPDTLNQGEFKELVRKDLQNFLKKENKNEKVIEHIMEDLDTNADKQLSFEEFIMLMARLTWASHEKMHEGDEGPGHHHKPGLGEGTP
Sequence of RAGE V domain (Homo sapiens) (Q15109 23-116): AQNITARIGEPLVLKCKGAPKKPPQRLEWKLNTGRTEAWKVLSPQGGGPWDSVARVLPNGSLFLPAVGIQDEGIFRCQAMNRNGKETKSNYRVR

S100A9 (from UniProt P06702)
Kd [1]: 5500 nM

S100A8: Recombinant human S100A8 prepared in E. coli; pro-inflammatory EF-hand Ca2+-binding protein
accelerated association with Aβ42 versus Aβ40 (monomeric Aβ42; Aβ42 vs Aβ40): 1.5 fold | slower dissociation from Aβ42 versus Aβ40 (monomeric Aβ42; Aβ42 vs Aβ40): 2.4 fold | ka × 10^−2 (monomeric Aβ42): 3.4 ± 0.9 M^−1s^−1 | maximal BLI signal of HSA interaction with Aβ40 (HSA–Aβ40 interaction): marked decline in the maximal BLI signal | maximal BLI signal of HSA interaction with Aβ42 (HSA–Aβ42 interaction): marked decline in the maximal BLI signal | band of cross-linked complex of S100A8 and Aβ monomers (Aβ40/Aβ42): about 15 kDa | Kd (Toll-like receptor 4): 1000 nM

S100A8 (from UniProt P05109)
Kd [2]: 1000 nM

Aβ40: Recombinant human amyloid-β peptide, 40 residues, prepared in E. coli
fibril morphology by TEM (Aβ40 fibrillation): dense clusters of the intertwined mature fibrils reaching microns in length

S100A9: Recombinant human S100A9 prepared in E. coli; pro-inflammatory EF-hand Ca2+-binding protein
ka × 10^−2 (monomeric Aβ40): 2.6 ± 1.0 M^−1s^−1 | ka × 10^−2 (monomeric Aβ42): 4.5 ± 1.3 M^−1s^−1 | maximal BLI signal of HSA interaction with Aβ40 (HSA–Aβ40 interaction): marked decline in the maximal BLI signal | maximal BLI signal of HSA interaction with Aβ42 (HSA–Aβ42 interaction): marked decline in the maximal BLI signal | Kd (RAGE V domain): 5000 to 6000 nM | direct S100A9–Aβ40 interaction by NMR (Aβ40): direct S100A9–Aβ40 interaction
